Laboratory results as given in patent publication US12011444B2, “N-substituted indole derivatives as PGE2 receptor modulators” (Idorsia Pharmaceuticals Ltd, priority 2015, dated 2024).

Experiments:
[1] = molecular target: PTGER2 (EP2) (Homo sapiens (Human), UniProt P43116); test: hEP2 b-arrestin assay (PathHunter HEK 293 PTGER2 b-arrestin cells); format: cell-based; details: hEP2 b-arrestin assay (values without asterisk)
From the text: (§1) The assay is using the PathHunter™ HEK 293 PTGER2 and PTGER4 b-arrestin cell lines from DiscoverX. The system is based on the Enzyme Fragment Complementation Technology. Two complementing fragments of the b-galactosidase enzyme are expressed within stably transfected cells. The larger portion of b-gal, termed EA for Enzyme Acceptor, is fused to the C-terminus of b-arrestin 2. The smaller fragment, termed ProLink™ tag, is fused to PTGER2 (EP2) or PTRGER4 (EP4) at the C-terminus. Upon activation, b-arrestin is recruited which forces the interaction of ProLink and EA, allowing complementation of the two fragments of b-gal and the formation of a functional enzyme which is capable of hydrolysing the substrate and generating a chemiluminescent signal.
(§2) 5000 cells per well of a 384 well plate (white with white bottom Greiner 781080) are seeded in 20 ul per well of GM. Plate is incubated at 37° C., 5% C02 for 24 hours.
Plate is pre-incubated 15 minutes at 37° C. Then five microliters of PGE2 (final conc. 5 μM) are transferred into the assay plate. Plate is incubated 120 minutes at 37° C.
(§3) Twelve μl of reagent are transferred to the assay plate and incubate for 1 hour at room temperature in the dark. Luminescence counts are read on a BMG Fluostar Optima reader according to manufacturer's instructions. For each compound concentration calculate of the percentage of activity compared to DMSO control value as average±STDEV. (each concentration is measured in duplicate)

[2] = molecular target: PTRGER4 (EP4) (Homo sapiens (Human), UniProt P35408); test: hEP4 b-arrestin assay (PathHunter HEK 293 PTGER4 b-arrestin cells); format: cell-based; details: hEP4 b-arrestin assay (values without asterisk)
From the text: as §1, §2
Plate is pre-incubated 15 minutes at 37° C. Then five microliters of PGE2 (final conc. 20 nM) are transferred into the assay plate. Plate is incubated 120 minutes at 37° C.
as §3, with “average±STDEV.” for “average±STDEV. (each concentration is measured in duplicate)”

PTGER2 (EP2), sequence (P43116 whole entry, the tested form may be a part): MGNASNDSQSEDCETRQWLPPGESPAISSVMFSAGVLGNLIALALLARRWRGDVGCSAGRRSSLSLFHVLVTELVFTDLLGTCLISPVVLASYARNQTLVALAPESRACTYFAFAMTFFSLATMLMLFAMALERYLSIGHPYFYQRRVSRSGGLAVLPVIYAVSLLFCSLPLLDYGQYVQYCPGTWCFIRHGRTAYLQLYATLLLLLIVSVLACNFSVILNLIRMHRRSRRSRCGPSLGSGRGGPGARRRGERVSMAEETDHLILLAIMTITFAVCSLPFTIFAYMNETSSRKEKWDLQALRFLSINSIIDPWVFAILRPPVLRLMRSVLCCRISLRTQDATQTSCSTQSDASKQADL
PTRGER4 (EP4), sequence (P35408 whole entry, looked up): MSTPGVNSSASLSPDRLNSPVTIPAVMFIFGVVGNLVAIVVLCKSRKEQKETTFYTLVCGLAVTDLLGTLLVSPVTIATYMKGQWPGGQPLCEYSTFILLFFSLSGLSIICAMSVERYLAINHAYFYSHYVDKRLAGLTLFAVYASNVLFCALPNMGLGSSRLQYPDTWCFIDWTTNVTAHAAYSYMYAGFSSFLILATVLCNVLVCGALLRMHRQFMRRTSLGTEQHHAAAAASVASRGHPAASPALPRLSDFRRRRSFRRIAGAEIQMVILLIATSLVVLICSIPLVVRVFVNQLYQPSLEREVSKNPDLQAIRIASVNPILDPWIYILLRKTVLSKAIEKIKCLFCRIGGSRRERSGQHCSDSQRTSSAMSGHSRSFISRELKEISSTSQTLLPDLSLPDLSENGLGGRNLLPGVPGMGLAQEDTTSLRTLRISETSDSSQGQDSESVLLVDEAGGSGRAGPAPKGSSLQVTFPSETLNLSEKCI

| Compound | IC50 [1] [nM] | IC50 [2] [nM] |
| --- | --- | --- |
| COc1ccc(F)c2c1cc(C#N)n2CCNc1cc(-c2ccc(-c3ncn(C)c3C)cc2)ncn1 [Example 823, 1-(2-{6-[4-(1,5-Dimethyl-1H-imidazol-4-yl)-phenyl]-pyrimidin-4-ylamino}-ethyl)-7-fluoro-4-methoxy-1H-indole-2-carbonitrile] | 5 | 5 |
| COc1ccc(F)c2c1cc(C#N)n2CCNc1cc(-c2ccc(-c3cn(C)c(C)n3)cc2)ncn1 [Example 824, 1-(2-{6-[4-(1,2-Dimethyl-1H-imidazol-4-yl)-phenyl]-pyrimidin-4-ylamino}-ethyl)-7-fluoro-4-methoxy-1H-indole-2-carbonitrile] | 8 | 7 |
| COc1ccc(F)c2c1cc(C#N)n2CCNc1cc(-c2ccc(-c3noc(=O)[nH]3)cc2)ncn1 [Example 825] | 14 | 8 |
| COc1cc(-c2cc(NCCn3c(C#N)cc4c(OC)ccc(F)c43)ncn2)sc1C1(O)COC1 [Example 826, 7-Fluoro-1-(2-{6-[5-(3-hydroxy-oxetan-3-yl)-4-methoxy-thiophen-2-yl]-pyrimidin-4-ylamino}-ethyl)-4-methoxy-1H-indole-2-carbonitrile] | 13 | 8 |
| COc1ccc(F)c2c1cc(C#N)n2CCNc1cc(-c2ccc(-c3cn(C)c(C4CC4)n3)cc2)ncn1 [Example 827, 1-(2-{6-[4-(2-Cyclopropyl-1-methyl-1H-imidazol-4-yl)-phenyl]-pyrimidin-4-ylamino}-ethyl)-7-fluoro-4-methoxy-1H-indole-2-carbonitrile] | 16 | 7 |
| COc1ccc(F)c2c1cc(C#N)n2CCNc1cc(-c2ccc(OCC(=O)O)c(OC(F)(F)F)c2)ncn1 [Example 828, (4-{6-[2-(2-Cyano-7-fluoro-4-methoxy-indol-1-yl)-ethylamino]-pyrimidin-4-yl}-2-trifluoromethoxy-phenoxy)-acetic acid] | 10 | 11 |
| COc1ccc(F)c2c1cc(C#N)n2CCNc1cc(-c2ccc(-c3cnc[nH]3)cc2)ncn1 [Example 829, 7-Fluoro-1-(2-{6-[4-(3H-imidazol-4-yl)-phenyl]-pyrimidin-4-ylamino}-ethyl)-4-methoxy-1H-indole-2-carbonitrile] | 15 | 12 |
| CCOc1cc(-c2cc(NCCn3c(C)cc4c(OC)ccc(F)c43)ncn2)ccc1-c1noc(=O)[nH]1 [Example 830, 3-(2-Ethoxy-4-{6-[2-(7-fluoro-4-methoxy-2-methyl-indol-1-yl)-ethylamino]-pyrimidin-4-yl}-phenyl)-[1,2,4]oxadiazol-5(4H)-one] | 3 | 12 |
| COc1ccc(F)c2c1cc(C#N)n2CCNc1cc(-c2ccc(-c3nc(=O)[nH]o3)cc2)ncn1 [Example 831, 7-Fluoro-1-(2-{6-[4-(3-oxo-2,3-dihydro-[1,2,4]-oxadiazol-5-yl)-phenyl]-pyrimidin-4-ylamino}-ethyl)-4-methoxy-1H-indole-2-carbonitrile] | 19 | 17 |
| COc1ccc(F)c2c1cc(C)n2CCNc1cc(-c2cc(OCC(F)(F)F)c(C(=O)O)s2)ncn1 [Example 832, 5-{6-[2-(7-Fluoro-4-methoxy-2-methyl-indol-1-yl)-ethylamino]-pyrimidin-4-yl}-3-(2,2,2-trifluoro-ethoxy)-thiophene-2-carboxylic acid] | 5 | 25 |
| CCCOc1cc(-c2cc(NCCn3c(C#N)cc4c(OC)ccc(F)c43)ncn2)ccc1CC(=O)O [Example 833, (4-{6-[2-(2-Cyano-7-fluoro-4-methoxy-indol-1-yl)-ethylamino]-pyrimidin-4-yl}-2-propoxy-phenyl)-acetic acid] | 62 | 27 |
| CCc1cc(-c2cc(NCCn3c(C#N)cc4c(OC)ccc(F)c43)ncn2)ccc1OCC(=O)O [Example 834, (4-{6-[2-(2-Cyano-7-fluoro-4-methoxy-indol-1-yl)-ethylamino]-pyrimidin-4-yl}-2-ethyl-phenoxy)-acetic acid] | 15 | 28 |
| CCOc1cc(-c2cc(NCCn3c(C)cc4c(C)cc(F)cc43)ncn2)ccc1-c1noc(=O)[nH]1 [Example 835, 3-(2-Ethoxy-4-{6-[2-(6-fluoro-2,4-dimethyl-indol-1-yl)-ethylamino]-pyrimidin-4-yl}-phenyl)-[1,2,4]oxadiazol-5(4H)-one] | 19 | 31 |
| [2H]C([2H])(Nc1cc(-c2cc(Cl)c(C(=O)O)c(OCCCC)c2)ncn1)C([2H])([2H])n1c(C)cc2c(OC)ccc(F)c21 [Example 836, 2-butoxy-6-chloro-4-(6-((2-(7-fluoro-4-methoxy-2-methyl-1H-indol-1-yl)ethyl-1,1,2,2-d4)amino)pyrimidin-4-yl)benzoic acid] | 7 | 32 |
| CCOc1cc(-c2cc(NCCn3c(C)cc4c(C)c(F)cc(Cl)c43)ncn2)sc1C(=O)O [Example 837, 5-{6-[2-(7-Chloro-5-fluoro-2,4-dimethyl-indol-1-yl)-ethylamino]-pyrimidin-4-yl}-3-ethoxy-thiophene-2-carboxylic acid] | 28 | 39 |
| COc1cc(F)cc2c1cc(C)n2CCNc1cc(-c2cc(OCC(F)(F)F)c(C(=O)O)s2)ncn1 [Example 838, 5-{6-[2-(6-Fluoro-4-methoxy-2-methyl-indol-1-yl)-ethylamino]-pyrimidin-4-yl}-3-(2,2,2-trifluoro-ethoxy)-thiophene-2-carboxylic acid] | 4 | 41 |
| N#Cc1c(F)c2ccccc2n1CCNc1cc(-c2cc(C(F)(F)F)c(C(=O)O)s2)ncn1 [Example 840, 5-{6-[2-(2-Cyano-3-fluoro-indol-1-yl)-ethylamino]-pyrimidin-4-yl}-3-trifluoromethyl-thiophene-2-carboxylic acid] | 48 | 47 |
| COc1ccc(F)c2c1cc(C#N)n2CCNc1cc(-c2ccc(OCC(=O)O)c(Cl)c2)ncn1 [Example 841, (2-Chloro-4-{6-[2-(2-cyano-7-fluoro-4-methoxy-indol-1-yl)-ethylamino]-pyrimidin-4-yl}-phenoxy)-acetic acid] | 25 | 61 |
| CCOc1cc(-c2cc(NCCn3c(C)cc4c(OC)ccc(F)c43)ncn2)ccc1-c1ncco1 [Example 842, [6-(3-Ethoxy-4-oxazol-2-yl-phenyl)-pyrimidin-4-yl]-[2-(7-fluoro-4-methoxy-2-methyl-indol-1-yl)-ethyl]-amine] | 13 | 94 |
| COc1ccc(F)c2c1cc(C)n2CCNc1cc(-c2ccc(C(=O)O)c(OCC(F)(F)F)c2)ncn1 [Example 844, 4-{6-[2-(7-Fluoro-4-methoxy-2-methyl-indol-1-yl)-ethylamino]-pyrimidin-4-yl}-2-(2,2,2-trifluoro-ethoxy)-benzoic acid] | 5 | 142 |
| COc1cc(F)cc2c1cc(C)n2CCNc1cc(-c2ccc(C(=O)O)c(OCC(F)(F)F)c2)ncn1 [Example 845, 4-{6-[2-(6-Fluoro-4-methoxy-2-methyl-indol-1-yl)-ethylamino]-pyrimidin-4-yl}-2-(2,2,2-trifluoro-ethoxy)-benzoic acid] | 7 | 215 |
| N#Cc1c(F)c2ccccc2n1CCNc1cc(-c2cc(F)c(C(=O)O)s2)ncn1 [Example 846, 5-{6-[2-(2-Cyano-3-fluoro-indol-1-yl)-ethylamino]-pyrimidin-4-yl}-3-fluoro-thiophene-2-carboxylic acid] | 24 | 221 |
